Reference: patent EP0234113A1, “2,3-Dihydro-1H-phenalene-2-amino compounds as anti-psychotic drugs” (THE UPJOHN COMPANY, priority 1985, dated 1987)
Where a name gives a salt, the structure may show the parent alone.

Columns and labels:
dopamine neurons [1] = experiment: Reversal of amphetamine depression of dopamine neuron firing rates; type: in vivo, rats
Protocol: Table 2. Dopamine neuron firing rates were recorded according to published procedures and drugs were injected intravenously in chloral hydrate anesthetized rats. A. Ability of drugs to reverse the depression in firing rates of dopamine neurons by 1 to 2 mg/kg amphetamine. The maximum effect is the maximum amount of the amphetamine effect that was reversed, even when doses were increased beyond dose causing maximum effect. […] B. Depression of dopamine neurons by full agonist apomorphine and partial agonists TDHL, (-)PPP and U-64,273A. Maximum effect is maximum depression that could be realized even after increasing doses beyong the dose causing maximum effect. For both A and B, the ED50 is the dose causing 50% of the respective antagonistic (A) or agonist (B) effect.

dopamine neurons [2] = experiment: Depression of dopamine neuron firing rates by the drug alone; type: in vivo, rats; conditions: Rattus norvegicus, iv; for Emax: read-out: MAXIMUM EFFECT (per cent decrease)
Protocol: Table 2. Dopamine neuron firing rates were recorded according to published procedures and drugs were injected intravenously in chloral hydrate anesthetized rats. A. Ability of drugs to reverse the depression in firing rates of dopamine neurons by 1 to 2 mg/kg amphetamine. The maximum effect is the maximum amount of the amphetamine effect that was reversed, even when doses were increased beyond dose causing maximum effect. An effect greater than 100% indicates excitation of the neuron beyond its' control rate whereas an effect less than 100% indicates partial agonist effects. B. Depression of dopamine neurons by full agonist apomorphine and partial agonists TDHL, (-)PPP and U-64,273A. Maximum effect is maximum depression that could be realized even after increasing doses beyong the dose causing maximum effect. For both A and B, the ED50 is the dose causing 50% of the respective antagonistic (A) or agonist (B) effect.

body temperature = experiment: Hypothermia Test (effect on body temperature); type: in vivo, CF-1 male mice; conditions: for active in either the hypothermic or the apomorphine antogonism test: either test: hypothermic or apomorphine antagonism
Protocol: The Effect on Body Temperature (Hypothermia) Test and the Antagonism of Apomorphone-Induced Case Climbing (ACC), (Apomorphine Gnawing Test) are described on page 1398 of the publication, Journal of Medicinal Chemistry, Vol. 22, No. 11, pp. 1390-1398, in an article entitled "6-Aryl-4H-s-triazolo[4,3-a][1,4]benzodiazepines....Action" by J. B. Hester, Jr., et al.
For the tests here, the Hypothermia Test procedure was run as follows:
A group of four CF-1 male mice (18-22 g each) was injected intraperitoneally with the test compound prepared in 0.25 percent w/v methylcellulose in water solution. After 45 min, abdominal temperature of each mouse was measured using a thermister probe. A control group of four mice was treated with vehicle only and the temperature of the control group was taken in a similar manner. A compound was considered to have a significant effect on body temperature if the mean temperature in the test compound treated group deviated more than 3.5°C from the mean temperature of the parallel control group. Stimulants tend to elevate temperatures; depressants tend to lower body temperature.

## CN(C)C1Cc2cccc3cccc(c23)C1 [U-65,556, 2,3-dihydro-N,N-dimethyl-lH-phenalen-2-amine]
Dopamine neurons [1]; intravenous, anesthetized rats
  reversal of amphetamine's depression of DA neuronal firing (in words): reversed amphetamine's depressions of DA neurons without causing firing rates to increase over control

## CCN(CC)C(=O)N[C@H]1C[C@@H]2c3cccc4[nH]cc(c34)C[C@H]2N(C)C1 [TDHL, trans-dihydrolisuride]
Dopamine neurons [1]; Rattus norvegicus, Neuron, iv
  ED50: 0.132 mg/kg
Dopamine neurons [1]; Rattus norvegicus, Neuron, iv, read-out: MAXIMUM EFFECT (per cent reversal)
  Emax: 57%
Dopamine neurons [2]; Neuron
  ED50: 0.021 mg/kg
  Emax: 53%

## CCCN(CCC)C1Cc2cccc3cc(O)cc(c23)C1.Cl (racemic) [(16), (±)2-(N,N-di-n-propylamino)-2,3-dihydro-1H-phenalen-5-ol hydrochloride]
Body temperature
  active in either the hypothermic or the apomorphine antogonism test: active

## 1-[2-(N,N-dimethylamino)-2,3-dihydro-1H-phenalen-y-yl]-ethan-1-ol hydrochloride [(10)]
Body temperature
  active in either the hypothermic or the apomorphine antogonism test: active

## CCCN(CCC)C1Cc2cccc3cc(O)cc(c23)C1 (racemic) [(15), (±)2-(N,N-di-n-propylamino)-2,3-dihydro-lH-phenalen-5-ol]
Body temperature; Mus musculus, ip, 0.75 h, read-out: hypothermia, calculated ED50
  ED50: 1 mg/kg
Body temperature
  active in either the hypothermic or the apomorphine antogonism test: active

## CCCN(CCC)C1Cc2cccc3cc(OC(=O)Cc4ccccc4)cc(c23)C1 (stereo not drawn) [(48), [2-(N,N-di-n-propylamino)-2,3-dihydro-1H-phenalen-5-yl]-α-phenylacetate ester hydrochloride, 0.5 H2O hydrate]
Body temperature
  active in either the hypothermic or the apomorphine antogonism test: active

## CN(C)C1Cc2cccc3cc(O)cc(c23)C1 (centres unmarked) [(23), 2-(N,N-dimethylamino)-2,3-dihydro-lH-phenalen-5-ol]
Body temperature
  active in either the hypothermic or the apomorphine antogonism test: active

## 5-[2-(N,N-dimethylamino)-2,3-dihydro-1H-phenalen-2-yl]azetidine hydrochloride [(13)]
Body temperature
  active in either the hypothermic or the apomorphine antogonism test: active

## CCCN(CCC)C1Cc2cccc3cc(O)cc(c23)C1 (single isomer, unassigned; (+)) [(33), (+)-2-(N,N-di-n-propylamino)-2,3-dihydro-lH-phenalen-5-ol hydrobromide]
Body temperature
  active in either the hypothermic or the apomorphine antogonism test: active

## c1cc2c3c(cccc3c1)CC(N1CCC1)C2 [(54), 1-[2,3-dihydro-IH-phenalen-2-yl]azetidine succinate salt]
Body temperature
  active in either the hypothermic or the apomorphine antogonism test: active

## CNC1Cc2cccc3c(OCc4ccccc4)ccc(c23)C1 (centres unmarked) [(21), [2-(N-methylamino)-2,3-dihydro-lH-phenalen-6-yl]benzyl ether, p-toluene sulfonate salt]
Body temperature
  active in either the hypothermic or the apomorphine antogonism test: active

## CCCN(CCC)C1Cc2cccc3ccc(O)c(c23)C1 (centres unmarked) [(28), 2-(N,N-di-n-propylamino)-2,3-dihydro-1H-phenalen-4-ol hydrobromide]
Body temperature
  active in either the hypothermic or the apomorphine antogonism test: active

## COc1ccc2cccc3c2c1CC(N(C)C)C3 (centres unmarked) [(31), N,N-dimethyl-4-methoxy-2,3-dihydro-lH-phenalen-2-ylamine maleate salt]
Body temperature
  active in either the hypothermic or the apomorphine antogonism test: active

## CNC1Cc2cccc3c(C(C)=O)ccc(c23)C1 (centres unmarked) [(14), N-methyl-6-acetyl-2,3-dihydro-lH-phenalen-2-amine hydrochloride]
Body temperature
  active in either the hypothermic or the apomorphine antogonism test: active

## CCCN(CCC)C1Cc2cccc3cc(OC(=O)c4ccccc4)cc(c23)C1 (centres unmarked) [(45), [2-(N,N-di-n-propylamino)-2,3-dihydro-lH-phenalen-5-yl]benzoate ester hydrochloride]
Body temperature
  active in either the hypothermic or the apomorphine antogonism test: active

## CN(C)C1Cc2cccc3c(Br)ccc(c23)C1 (centres unmarked) [(2), 6-Bromo-N,N-dimethyl-2,3-dihydro-lH-phenalen-2-amine hydrochloride]
Body temperature
  active in either the hypothermic or the apomorphine antogonism test: active

## CNC1Cc2cccc3c(OCc4ccccc4)ccc(c23)C1 (stereo not drawn) [(41), [2-(N-methylamino)-2,3-dihydro-1H-phenalen-6-yi]-α-benzyl-ether p-toluenesulfonate salt monohydrate]
Body temperature
  active in either the hypothermic or the apomorphine antogonism test: active

## CN(C)C1Cc2cccc3ccc(O)c(c23)C1 (centres unmarked) [(36), 2-(N,N-dimethylamino)-2,3-dihydro-lH-phenalen-4-ol hydrobromide]
Body temperature
  active in either the hypothermic or the apomorphine antogonism test: active

## CCCN1CCC[C@@H](c2cccc(O)c2)C1 [(-)PPP]
Dopamine neurons [2]; Neuron, dose causing 50% of the agonist effect, intravenously, anesthetized rats, read-out: ED50
  ED50: 0.137 mg/kg
Dopamine neurons [2]; B. depress DA neuron firing rates, intravenously, chloral hydrate anesthetized rats
  Emax: 68%

## N,N-dimethyl-4-methoxy-1H-phenalen-2-ylamine hydrochloride, 0.25 H20 hydrate [(30)]
Body temperature
  active in either the hypothermic or the apomorphine antogonism test: active

## Brc1ccc2c3c(cccc13)CC(N1CCCC1)C2 (centres unmarked) [(26), 1-[6-bromo-2,3-dihydro-lH-phenalen-2-yl]pyrrolidine]
Body temperature
  active in either the hypothermic or the apomorphine antogonism test: active

## CCCN(CCC)C1Cc2cccc3cc(OC(=O)OCC)cc(c23)C1 (centres unmarked) [(47), [2-(N,N-di-n-propylamino)-2,3-dihydro-lH-phenalen-5-yl]-ethyl carbonate (ester)]
Body temperature
  active in either the hypothermic or the apomorphine antogonism test: active

## COc1ccc2cccc3c2c1CC(N)C3 (centres unmarked) [(24), 4-methoxy-2,3-dihydro-lH-phenalen-2-amine]
Body temperature
  active in either the hypothermic or the apomorphine antogonism test: active

## [2-amino-2,3-dihydro-lH-phenalen-6-yl]-a-benzyl ether maleate salt [(49)]
Body temperature
  active in either the hypothermic or the apomorphine antogonism test: active

## NC1Cc2cccc3cc(OCc4ccccc4)cc(c23)C1 (centres unmarked) [(38), [2-amino-2,3-dihydro-lH-phenalen-5-yl]-a-benzyl ether hydrochloride]
Body temperature
  active in either the hypothermic or the apomorphine antogonism test: active

## CN(C)C1Cc2cccc3c(C(=O)c4ccccc4)ccc(c23)C1 (centres unmarked) [(19), [2-(N,N-dimethylamino)-2,3-dihydro-1H-phenalen-6-yl]phenone maleate salt]
Body temperature
  active in either the hypothermic or the apomorphine antogonism test: active

## CN(C)C1(N2CCC2)Cc2cccc3cccc(c23)C1 [(11), 1-[2-(N,N-dimethylamino)-2,3-dihydro-1H-phenalen-2-yl]azetidine]
Body temperature
  active in either the hypothermic or the apomorphine antogonism test: active

## 6-chloro-N,N-di-n-propyl-2,3-dihydro-lH-phenalen-2-ylamine hydrochloride [(51)]
Body temperature
  active in either the hypothermic or the apomorphine antogonism test: active

## N,N-dimethyl-6-(2-methyl-l,3-dioxan-2-yl)-2,3-dihydro-lH- phenalen-2-amine [(8)]
Body temperature
  active in either the hypothermic or the apomorphine antogonism test: active

## COc1ccc2cccc3c2c1CC(N(C)C)C3 (centres unmarked) [(35), N,N-dimethyl-4-methoxy-2 ,3-dihydro-lH-phenalen-2-ylamine hydrochloride]
Body temperature
  active in either the hypothermic or the apomorphine antogonism test: active

## CCCN(CCC)C1Cc2cccc3ccc(OC)c(c23)C1 (centres unmarked) [(25), N,N-di-n-propyl-4-methoxy-2,3-dihydro-lH-phenalen-2-amine hydrochloride]
Body temperature
  active in either the hypothermic or the apomorphine antogonism test: active

## CN(C)C1Cc2cccc3c(C(=O)c4ccccc4)ccc(c23)C1 (centres unmarked) [(39), [2-(N,N-dimethylamina-2,3-dihydro-1H-phenalen-6-yl]phenone maleate salt, hydrochloride]
Body temperature
  active in either the hypothermic or the apomorphine antogonism test: active

## Cl.NC1Cc2cccc3cc(Cl)cc(c23)C1 (centres unmarked) [(50), 5-chloro-2,3-dihydro-1H-phenalen-2-ylamine hydrochloride]
Body temperature
  active in either the hypothermic or the apomorphine antogonism test: active

## CCCN(CCC)C1Cc2cccc3cc(O)cc(c23)C1 (racemic) [(17), (±)2-(N,N-di-n-propylamino)-2,3-dihydro-lH-phenalen-5-ol hydrobromide salt]
Body temperature
  active in either the hypothermic or the apomorphine antogonism test: active

## 6-chloro-N,N-dimethyl-2,3-dihydro-lH-phenalen-2-amine hydrochloride [(52)]
Body temperature
  active in either the hypothermic or the apomorphine antogonism test: active

## CN(C)C1Cc2cccc3c(OCc4ccccc4)ccc(c23)C1 (centres unmarked) [(22), [2-(N,N-dimethylamino)-2,3-dihydro-1H-phenalen-6-yl]benzyl ether hydrochloride]
Body temperature
  active in either the hypothermic or the apomorphine antogonism test: active
